Measured values taken from PubChem BioAssay AID2060506 (Molecular Pharmacology Branch, DTP, NCI, 2025).

System: 598228-144-R-J1-PDC complex spheroid viability
Experiment: Anticancer human tumor 598228-144-R-J1-PDC patient-derived serous endometrial adenocarcinoma cell line growth inhibition [GQUAD]
Conditions: for IC50: curve of first compound; for viability, T/C: stronger effect = lower value
Method in brief: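 Viability of tumor cells grown as complex spheroids with endothelial and stromal cells, exposed to drug combinations. Top concentration at or near clinical Cmax (else 10 microM), diluted in half-log increments.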

[1] = second compound 0.0316 µM, first compound 0.0316 µM
[2] = second compound 0.0316 µM, first compound 0.1 µM
[3] = second compound 0.0316 µM, first compound 0.316 µM
[4] = second compound 0.0316 µM, first compound 1 µM
[5] = second compound 0.0316 µM, first compound 3.16 µM
[6] = second compound 0.0316 µM, first compound 10 µM
[7] = second compound 0.1 µM, first compound 0.0316 µM
[8] = second compound 0.1 µM, first compound 0.1 µM
[9] = second compound 0.1 µM, first compound 0.316 µM
[10] = second compound 0.1 µM, first compound 1 µM
[11] = second compound 0.1 µM, first compound 3.16 µM
[12] = second compound 0.1 µM, first compound 10 µM
[13] = second compound 0.316 µM, first compound 0.0316 µM
[14] = second compound 0.316 µM, first compound 0.1 µM
[15] = second compound 0.316 µM, first compound 0.316 µM
[16] = second compound 0.316 µM, first compound 1 µM
[17] = second compound 0.316 µM, first compound 3.16 µM
[18] = second compound 0.316 µM, first compound 10 µM
[19] = second compound 1 µM, first compound 0.0316 µM
[20] = second compound 1 µM, first compound 0.1 µM
[21] = second compound 1 µM, first compound 0.316 µM
[22] = second compound 1 µM, first compound 1 µM
[23] = second compound 1 µM, first compound 3.16 µM
[24] = second compound 1 µM, first compound 10 µM
[25] = second compound 3.16 µM, first compound 0.0316 µM
[26] = second compound 3.16 µM, first compound 0.1 µM
[27] = second compound 3.16 µM, first compound 0.316 µM
[28] = second compound 3.16 µM, first compound 1 µM
[29] = second compound 3.16 µM, first compound 3.16 µM
[30] = second compound 3.16 µM, first compound 10 µM
[31] = second compound 10 µM, first compound 0.0316 µM
[32] = second compound 10 µM, first compound 0.1 µM
[33] = second compound 10 µM, first compound 0.316 µM
[34] = second compound 10 µM, first compound 1 µM
[35] = second compound 10 µM, first compound 3.16 µM
[36] = second compound 10 µM, first compound 10 µM
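Also: spheroids exposed to the agents for one week before reading.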
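For viability, T/C in this document: percent of vehicle DMSO control viability so 100% = untreated growth.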

C=CCn1c(=O)c2cnc(Nc3ccc(N4CCN(C)CC4)cc3)nc2n1-c1cccc(C(C)(C)O)n1 + Cc1[nH]c2ccc(F)cc2c1-c1nc2c3cccnc3c3ncccc3c2[nH]1
IC50 (second compound 0.0316 µM): 999 nM | IC50 (second compound 0.1 µM): > 10000 nM | IC50 (second compound 0.316 µM): > 10000 nM | IC50 (second compound 1 µM): > 10000 nM | IC50 (second compound 3.16 µM): < 31.6 nM | IC50 (second compound 10 µM): > 10000 nM | viability, T/C [1]: 110% | viability, T/C [2]: 102% | viability, T/C [3]: 83.2% | viability, T/C [4]: 48.3% | viability, T/C [5]: 47.1% | viability, T/C [6]: 52.8% | viability, T/C [7]: 125% | viability, T/C [8]: 84.6% | viability, T/C [9]: 62.5% | viability, T/C [10]: 53.4% | viability, T/C [11]: 52.8% | viability, T/C [12]: 55.9% | viability, T/C [13]: 77.7% | viability, T/C [14]: 75.4% | viability, T/C [15]: 66.1% | viability, T/C [16]: 48.9% | viability, T/C [17]: 55.6% | viability, T/C [18]: 62.4% | viability, T/C [19]: 52% | viability, T/C [20]: 59.8% | viability, T/C [21]: 46.7% | viability, T/C [22]: 48.7% | viability, T/C [23]: 55% | viability, T/C [24]: 74.5% | viability, T/C [25]: 40.1% | viability, T/C [26]: 35.1% | viability, T/C [27]: 39.9% | viability, T/C [28]: 44.6% | viability, T/C [29]: 59% | viability, T/C [30]: 62.3% | viability, T/C [31]: 73.6% | viability, T/C [32]: 54.6% | viability, T/C [33]: 50.4% | viability, T/C [34]: 42.4% | viability, T/C [35]: 52.2% | viability, T/C [36]: 57.7%

CC(C)(O)C1CCC(Nc2ccc3ncc(-c4cccc(C(F)(F)F)c4)n3n2)CC1 (stereo not drawn) + Cc1[nH]c2ccc(F)cc2c1-c1nc2c3cccnc3c3ncccc3c2[nH]1
IC50 (second compound 0.0316 µM): 2400 nM | IC50 (second compound 0.1 µM): 2370 nM | IC50 (second compound 0.316 µM): 2240 nM | IC50 (second compound 1 µM): 1290 nM | IC50 (second compound 3.16 µM): < 31.6 nM | IC50 (second compound 10 µM): 1330 nM | viability, T/C [1]: 106% | viability, T/C [2]: 112% | viability, T/C [3]: 109% | viability, T/C [4]: 86.5% | viability, T/C [5]: 38.8% | viability, T/C [6]: 30.7% | viability, T/C [7]: 133% | viability, T/C [8]: 121% | viability, T/C [9]: 103% | viability, T/C [10]: 95.3% | viability, T/C [11]: 32.2% | viability, T/C [12]: 30.1% | viability, T/C [13]: 77.5% | viability, T/C [14]: 85.5% | viability, T/C [15]: 81.3% | viability, T/C [16]: 93.8% | viability, T/C [17]: 35.2% | viability, T/C [18]: 26.3% | viability, T/C [19]: 58.7% | viability, T/C [20]: 67% | viability, T/C [21]: 57.5% | viability, T/C [22]: 55.8% | viability, T/C [23]: 30.6% | viability, T/C [24]: 24% | viability, T/C [25]: 30.7% | viability, T/C [26]: 40.9% | viability, T/C [27]: 38.8% | viability, T/C [28]: 39.7% | viability, T/C [29]: 23.1% | viability, T/C [30]: 27.7% | viability, T/C [31]: 76.4% | viability, T/C [32]: 52.6% | viability, T/C [33]: 63.2% | viability, T/C [34]: 57.2% | viability, T/C [35]: 25.9% | viability, T/C [36]: 30.7%

COc1ncnc(C2CC2)c1-c1ncc2cnn(Cc3ccc(-c4nc(C(F)(F)F)cn4C(C)C)cc3)c2n1 + Cc1[nH]c2ccc(F)cc2c1-c1nc2c3cccnc3c3ncccc3c2[nH]1
IC50 (second compound 0.0316 µM): > 10000 nM | IC50 (second compound 0.1 µM): > 10000 nM | IC50 (second compound 0.316 µM): > 10000 nM | IC50 (second compound 1 µM): > 10000 nM | IC50 (second compound 3.16 µM): < 31.6 nM | IC50 (second compound 10 µM): > 10000 nM | viability, T/C [1]: 130% | viability, T/C [2]: 124% | viability, T/C [3]: 125% | viability, T/C [4]: 93.1% | viability, T/C [5]: 119% | viability, T/C [6]: 112% | viability, T/C [7]: 116% | viability, T/C [8]: 94.5% | viability, T/C [9]: 103% | viability, T/C [10]: 91.8% | viability, T/C [11]: 114% | viability, T/C [12]: 130% | viability, T/C [13]: 94.3% | viability, T/C [14]: 93.3% | viability, T/C [15]: 82% | viability, T/C [16]: 93.1% | viability, T/C [17]: 126% | viability, T/C [18]: 105% | viability, T/C [19]: 51.1% | viability, T/C [20]: 76.1% | viability, T/C [21]: 74.5% | viability, T/C [22]: 58% | viability, T/C [23]: 66.2% | viability, T/C [24]: 78.3% | viability, T/C [25]: 38% | viability, T/C [26]: 31.1% | viability, T/C [27]: 39.2% | viability, T/C [28]: 34.2% | viability, T/C [29]: 41.8% | viability, T/C [30]: 38.7% | viability, T/C [31]: 65% | viability, T/C [32]: 65% | viability, T/C [33]: 69.6% | viability, T/C [34]: 57.2% | viability, T/C [35]: 77.7% | viability, T/C [36]: 105%

O=C(NO)c1cnc(N2CCN(S(=O)(=O)c3ccc4ccccc4c3)CC2)nc1 + Cc1[nH]c2ccc(F)cc2c1-c1nc2c3cccnc3c3ncccc3c2[nH]1
IC50 (second compound 0.0316 µM): 187 nM | IC50 (second compound 0.1 µM): 248 nM | IC50 (second compound 0.316 µM): 209 nM | IC50 (second compound 1 µM): 123 nM | IC50 (second compound 3.16 µM): < 31.6 nM | IC50 (second compound 10 µM): 127 nM | viability, T/C [1]: 120% | viability, T/C [2]: 80.4% | viability, T/C [3]: 25.1% | viability, T/C [4]: 0.4% | viability, T/C [5]: 0.21% | viability, T/C [6]: 0.21% | viability, T/C [7]: 99.4% | viability, T/C [8]: 97.2% | viability, T/C [9]: 37.5% | viability, T/C [10]: 0.48% | viability, T/C [11]: 0.3% | viability, T/C [12]: 0.23% | viability, T/C [13]: 94.3% | viability, T/C [14]: 90.2% | viability, T/C [15]: 27.6% | viability, T/C [16]: 0.67% | viability, T/C [17]: 0.25% | viability, T/C [18]: 0.34% | viability, T/C [19]: 62.3% | viability, T/C [20]: 52.7% | viability, T/C [21]: 28.8% | viability, T/C [22]: 1% | viability, T/C [23]: 0.31% | viability, T/C [24]: 0.56% | viability, T/C [25]: 39.8% | viability, T/C [26]: 29.3% | viability, T/C [27]: 19.3% | viability, T/C [28]: 0.37% | viability, T/C [29]: 0.44% | viability, T/C [30]: 0.51% | viability, T/C [31]: 67.4% | viability, T/C [32]: 54.9% | viability, T/C [33]: 27.5% | viability, T/C [34]: 1.72% | viability, T/C [35]: 0.78% | viability, T/C [36]: 0.43%
